Test results as given in ChEMBL document CHEMBL1132933, “Protease inhibitors: synthesis and QSAR study of novel classes of nonbasic thrombin inhibitors incorporating sulfonylguanidine and O-methylsulfonylisourea moieties at P1” (J Med Chem, 2000).

How the values were obtained:
Prothrombin = Prothrombin (Homo sapiens, UniProt P00734); experiment: Inhibitory activity against human thrombin (using Chromozym TH as the substrate)
Trypsin = Trypsin (Homo sapiens, UniProt P07477+P07478+P35030); experiment: Inhibitory activity against human trypsin (using Chromozym TH as the substrate); format: protein assay

SMILES | Ki (Prothrombin) | Ki (Trypsin)
COC(=N)NS(=O)(=O)c1ccc(NC(=O)[C@@H](Cc2ccccc2)NC(=O)OCc2ccccc2)cc1 | 62 nM | 1425 nM
COC(=N)NS(=O)(=O)c1ccccc1[N+](=O)[O-] | 355 nM | 2340 nM
N=C(N)NNS(=O)(=O)c1ccc(F)cc1 | 225 nM | 1025 nM
COC(=N)NS(=O)(=O)c1ccc2ccccc2c1 | 147 nM | 1445 nM
COC(=N)NS(=O)(=O)c1ccc([N+](=O)[O-])c(Cl)c1 | 177 nM | 1200 nM
CN(C)c1cccc2c(S(=O)(=O)N=C(N)N)cccc12 | 120 nM | 1150 nM
Cc1ccc(S(=O)(=O)NC(=O)N[C@H](Cc2ccccc2)C(=O)Nc2ccc(S(=O)(=O)N=C(N)N)cc2)cc1 | 43 nM | 1250 nM
COC(=N)NS(=O)(=O)c1cccc(N)c1 | 99 nM | 1370 nM
N=C(N)NNS(=O)(=O)c1cc(Cl)cc(Cl)c1O | 98 nM | 1100 nM
Cc1ccc(S(=O)(=O)N=C(N)N)cc1 | 290 nM | 1810 nM
COC(=N)NS(=O)(=O)CC12CCC(CC1=O)C2(C)C (configuration not stated) | 336 nM | 1075 nM
COc1ccc(S(=O)(=O)NN=C(N)N)cc1N | 219 nM | 1100 nM
COC(=N)NS(=O)(=O)c1ccc(C(=O)O)cc1 | 133 nM | 1340 nM
N=C(N)NS(=O)(=O)c1ccc(NC(=O)[C@@H](Cc2ccccc2)NC(=O)OCc2ccccc2)cc1 | 54 nM | 1285 nM
N=C(N)NS(=O)(=O)c1ccccc1C(=O)O | 240 nM | 1445 nM
N=C(N)NS(=O)(=O)c1cccc(C(=O)O)c1 | 121 nM | 1500 nM
CC(=O)Nc1ccc(S(=O)(=O)N=C(N)N)cc1 | 195 nM | 1070 nM
N=C(N)NS(=O)(=O)c1ccc([N+](=O)[O-])c(Cl)c1 | 160 nM | 990 nM
COC(=N)NS(=O)(=O)c1c(F)c(F)c(F)c(F)c1F | 153 nM | 1425 nM
Cc1ccc(S(=O)(=O)NC(=O)N[C@@H](Cc2ccccc2)C(=O)N2CCCC2C(=O)Nc2ccc(S(=O)(=O)N=C(N)N)cc2)cc1 (some centres not stated) | 12 nM | 1315 nM
Cc1ccc(S(=O)(=O)NC(=O)N2CCC[C@H]2C(=O)NCC(=O)Nc2ccc(S(=O)(=O)N=C(N)N)cc2)cc1 | 21 nM | 1400 nM
COC(=N)NS(=O)(=O)C(F)(F)C(F)(F)C(F)(F)C(F)(F)C(F)(F)C(F)(F)C(F)(F)C(F)(F)F | 403 nM | 2135 nM

SMILES | Ki (Prothrombin) | Ki (Trypsin)
N=C(N)NNS(=O)(=O)c1ccc([N+](=O)[O-])c(Cl)c1 | 154 nM | 1010 nM
COC(=N)NS(=O)(=O)c1ccc(NC(=O)[C@H](Cc2c[nH]cn2)NC(=O)CNC(=O)NS(=O)(=O)c2ccc(C)cc2)cc1 | 21 nM | 1550 nM
COC(=N)NS(=O)(=O)c1ccc(OC)c(N)c1 | 96 nM | 1235 nM
N=C(N)NS(=O)(=O)c1ccc(C(=O)O)cc1 | 104 nM | 1235 nM
COC(=N)NS(=O)(=O)c1ccc(C)cc1 | 328 nM | 2150 nM
COC(=N)NS(=O)(=O)c1cccc2ccccc12 | 154 nM | 1425 nM
N=C(N)NS(=O)(=O)c1cccc([N+](=O)[O-])c1 | 190 nM | 1100 nM
N=C(N)NS(=O)(=O)c1c(Br)c(Br)c(Br)c(Br)c1C(=O)O | 225 nM | 1250 nM
N=C(N)NNS(=O)(=O)c1ccc(NC(=O)C2CCCN2C(=O)[C@H](Cc2ccccc2)NC(=O)OCc2ccccc2)cc1 (some centres not stated) |  | 1400 nM
N=C(N)NS(=O)(=O)c1ccccc1[N+](=O)[O-] | 320 nM | 1850 nM
N=C(N)NCCCNC(=O)[C@@H]1CCCCN1C(=O)C(CC1CCCCC1)NCC(=O)O (some centres not stated) |  | 540 nM
N=C(N)NNS(=O)(=O)c1ccc(I)cc1 | 177 nM | 1300 nM
COC(=N)NS(=O)(=O)c1cc(Cl)cc(Cl)c1O | 170 nM | 1550 nM
COC(=N)NS(=O)(=O)C(F)(F)F | 895 nM | 1450 nM
N=C(N)NS(=O)(=O)c1ccc2ccccc2c1 | 132 nM | 1300 nM
COC(=N)NS(=O)(=O)c1ccc(N)cc1 | 106 nM | 1580 nM
COc1ccc(S(=O)(=O)N=C(N)N)cc1 | 240 nM | 1320 nM
COC(=N)NS(=O)(=O)C(F)(F)C(F)(F)C(F)(F)C(F)(F)F | 565 nM | 2180 nM
N=C(N)NS(=O)(=O)C(F)(F)C(F)(F)C(F)(F)C(F)(F)C(F)(F)C(F)(F)C(F)(F)C(F)(F)F | 360 nM | 1950 nM
N=C(N)NS(=O)(=O)c1ccc(N)cc1 [SULFAGUANIDINE] | 95 nM | 1350 nM
COC(=N)NS(=O)(=O)c1ccc([N+](=O)[O-])cc1 | 189 nM | 1235 nM
COC(=N)NS(=O)(=O)c1ccc(Cl)cc1 | 266 nM | 1325 nM

SMILES | Ki (Prothrombin) | Ki (Trypsin)
COC(=N)NS(=O)(=O)c1ccccc1C(=O)O | 325 nM | 1550 nM
N=C(N)NNS(=O)(=O)c1c(F)c(F)c(F)c(F)c1F | 123 nM | 1350 nM
CN(C)c1cccc2c(S(=O)(=O)NN=C(N)N)cccc12 | 130 nM | 1200 nM
Cc1ccc(S(=O)(=O)NN=C(N)N)cc1 | 270 nM | 1775 nM
N=C(N)NS(=O)(=O)c1ccc(I)cc1 | 210 nM | 1350 nM
Cc1ccc(S(=O)(=O)NC(=O)NCCC(=O)N[C@@H](Cc2c[nH]cn2)C(=O)Nc2ccc(S(=O)(=O)N=C(N)N)cc2)cc1 | 15 nM | 1350 nM
N=C(N)NS(=O)(=O)c1ccc(Br)cc1 | 220 nM | 1230 nM
N=C(N)NNS(=O)(=O)c1ccccc1[N+](=O)[O-] | 324 nM | 1800 nM
Cc1cc(C)c(S(=O)(=O)NN=C(N)N)c(C)c1 | 219 nM | 1100 nM
N=C(N)NS(=O)(=O)c1ccc(F)cc1 | 240 nM | 1090 nM
Cc1ccc(S(=O)(=O)NC(=O)NCC(=O)N[C@@H](Cc2c[nH]cn2)C(=O)Nc2ccc(S(=O)(=O)N=C(N)N)cc2)cc1 | 18 nM | 1455 nM
COC(=N)NS(=O)(=O)c1cccc([N+](=O)[O-])c1 | 213 nM | 1375 nM
N=C(N)NS(=O)(=O)c1cccc(N)c1 | 107 nM | 1145 nM
N=C(N)NNS(=O)(=O)c1ccc(NC(=O)[C@@H](Cc2ccccc2)NC(=O)OCc2ccccc2)cc1 | 50 nM | 1315 nM
N=C(N)NS(=O)(=O)c1cc(Cl)cc(Cl)c1O | 152 nM | 1420 nM
Cc1ccc(S(=O)(=O)NC(=O)NCCC(=O)N[C@@H](Cc2c[nH]cn2)C(=O)Nc2ccc(S(=O)(=O)NN=C(N)N)cc2)cc1 | 10 nM | 1390 nM
COC(=N)NS(=O)(=O)c1ccc(NC(=O)[C@H](Cc2c[nH]cn2)NC(=O)CCNC(=O)NS(=O)(=O)c2ccc(C)cc2)cc1 | 19 nM | 1420 nM
N=C(N)NNS(=O)(=O)c1ccc([N+](=O)[O-])cc1 | 166 nM | 990 nM
N=C(N)NS(=O)(=O)C(F)(F)C(F)(F)C(F)(F)C(F)(F)F | 520 nM | 2100 nM
COC(=N)NS(=O)(=O)c1ccc(NC(=O)[C@@H](Cc2ccccc2)NC(=O)NS(=O)(=O)c2ccc(C)cc2)cc1 | 60 nM | 1320 nM
N=C(N)NS(=O)(=O)Cc1ccccc1 | 330 nM | 1350 nM
COC(=N)NS(=O)(=O)c1ccc(Br)cc1 | 265 nM | 1370 nM

SMILES | Ki (Prothrombin) | Ki (Trypsin)
Cc1ccc(S(=O)(=O)NC(=O)N2CCCC2C(=O)Nc2ccc(S(=O)(=O)NN=C(N)N)cc2)cc1 (configuration not stated) | 43 nM | 1530 nM
COC(=N)NS(=O)(=O)c1c(Br)c(Br)c(Br)c(Br)c1C(=O)O | 239 nM | 1300 nM
N=C(N)NS(=O)(=O)c1ccc(C(=N)N)cc1 | 300 nM | 450 nM
N=C(N)NNS(=O)(=O)c1cccc(C(=O)O)c1 | 112 nM | 1520 nM
COC(=N)NS(=O)(=O)c1ccc(NC(=O)C2CCCN2C(=O)[C@H](Cc2ccccc2)NC(=O)NS(=O)(=O)c2ccc(C)cc2)cc1 (some centres not stated) | 18 nM | 1420 nM
Cc1ccc(S(=O)(=O)NC(=O)N2CCC[C@H]2C(=O)NCC(=O)Nc2ccc(S(=O)(=O)NN=C(N)N)cc2)cc1 | 15 nM | 1560 nM
COC(=N)NS(=O)(=O)c1ccc(NC(=O)CNC(=O)[C@@H]2CCCN2C(=O)NS(=O)(=O)c2ccc(C)cc2)cc1 | 27 nM | 1540 nM
N=C(N)NS(=O)(=O)c1cccs1 | 185 nM | 1320 nM
COC(=N)NS(=O)(=O)c1c(C)cc(C)cc1C | 348 nM | 1785 nM
N=C(N)NNS(=O)(=O)c1cccc(N)c1 | 88 nM | 1400 nM
COC(=N)NS(=O)(=O)c1ccc(I)cc1 | 243 nM | 1415 nM
COC(=N)NS(=O)(=O)c1ccc(NC(=O)C2CCCN2C(=O)NS(=O)(=O)c2ccc(C)cc2)cc1 (configuration not stated) | 63 nM | 1500 nM
Cc1ccc(S(=O)(=O)NC(=O)N2CCCC2C(=O)Nc2ccc(S(=O)(=O)N=C(N)N)cc2)cc1 (configuration not stated) | 48 nM | 1445 nM
CN(C)S(=O)(=O)N=C(N)N |  | 2890 nM
N=C(N)NNS(=O)(=O)c1cccc([N+](=O)[O-])c1 | 170 nM | 1235 nM
Cc1cc(C)c(S(=O)(=O)N=C(N)N)c(C)c1 | 255 nM | 1450 nM
N=C(N)NS(=O)(=O)c1ccc(NC(=O)C2CCCN2C(=O)[C@H](Cc2ccccc2)NC(=O)OCc2ccccc2)cc1 (some centres not stated) | 13 nM | 1360 nM
N=C(N)NS(=O)(=O)C(F)(F)F | 890 nM | 1275 nM
COC(=N)NS(=O)(=O)c1cccc2c(N(C)C)cccc12 | 138 nM | 1375 nM
